Like-named read-outs stand apart in the source and are kept apart here.
What was measured:
[1] = system: TNF production in whole blood; assay: Inhibition of TNF production in LPS-stimulated whole blood ("WB"); assay type: cell-based, human
Experimental: (§1) Inhibitors were serially diluted in DMSO from a 20 mM stock. At least 6 serial dilutions were prepared. Then 4× inhibitor stocks were prepared by adding 4 μl of an inhibitor dilution to 1 ml of RPMI1640 medium/10% fetal bovine serum. The 4× inhibitor stocks contained inhibitor at concentrations of 80 μM, 32 μM, 12.8 μM, 5.12 μM, 2.048 μM, 0.819 μM, 0.328 μM, 0.131 μM, 0.052 μM, 0.021 μM etc. The 4× inhibitor stocks were pre-warmed at 37° C. until use.
(§2) Alternatively, whole blood containing an anti-coagulant was used directly in the assay.
(§3) We placed 100 μl of cell suspension or whole blood in each well of a 96-well cell culture plate. Then we added 50 μl of the 4× inhibitor stock to the cells. Finally, we added 50 μl of a lipopolysaccharide (LPS) working stock solution (16 ng/ml in cell culture medium) to give a final concentration of 4 ng/ml LPS in the assay. The total assay volume of the vehicle control was also adjusted to 200 μl by adding 50 μl cell culture medium. The PBMC cells or whole blood were then incubated overnight (for 12–15 hours) at 37° C./5% CO2 in a humidified atmosphere.
(§4) The next day the cells were mixed on a shaker for 3–5 minutes before centrifugation at 500×g for 5 minutes. Cell culture supernatants were harvested and analyzed by ELISA for levels of IL-1b (R & D Systems, Quantikine kits, #DBL50), TNF-α (BioSource, #KHC3012), IL-6 (Endogen, #EH2-IL6) and IL-8 (Endogen, #EH2-IL8) according to the instructions of the manufacturer. The ELISA data were used to generate dose-response curves from which IC50 values were derived.

[2] = system: TNF production in LPS-stimulated PBMCs; assay: Inhibition of TNF production in LPS-stimulated PBMCs ("cell"); assay type: cell-based, human
Experimental: as §1
(§5) Fresh human blood buffy cells were separated from other cells in a Vacutainer CPT from Becton & Dickinson (containing 4 ml blood and enough DPBS without Mg^2+/Ca^2+ to fill the tube) by centrifugation at 1500×g for 15 min. Peripheral blood mononuclear cells (PBMCs), located on top of the gradient in the Vacutainer, were removed and washed twice with RPMI1640 medium/10% fetal bovine serum. PBMCs were collected by centrifugation at 500×g for 10 min. The total cell number was determined using a Neubauer Cell Chamber and the cells were adjusted to a concentration of 4.8×10^6 cells/ml in cell culture medium (RPMI1640 supplemented with 10% fetal bovine serum).
as §3, §4

[3] = system: IL-1 production in LPS-stimulated PBMCs; assay: Inhibition of IL-1 production in LPS-stimulated PBMCs ("cell"); assay type: cell-based, human
Experimental: as §1, §5, §3, §4

[4] = system: IL-6 production in whole blood; assay: Inhibition of IL-6 production in LPS-stimulated whole blood ("WB"); assay type: cell-based, human
Experimental: as §1, §2, §3, §4

activated p38 = activated p38 (Homo sapiens, UniProt Q16539); assay: Inhibition of phosphorylation of EGF receptor peptide ("kinase"); assay type: biochemical; conditions: inhibition of phosphorylation of EGF receptor peptide by activated p38
Sequence of activated p38 (Q16539 whole entry): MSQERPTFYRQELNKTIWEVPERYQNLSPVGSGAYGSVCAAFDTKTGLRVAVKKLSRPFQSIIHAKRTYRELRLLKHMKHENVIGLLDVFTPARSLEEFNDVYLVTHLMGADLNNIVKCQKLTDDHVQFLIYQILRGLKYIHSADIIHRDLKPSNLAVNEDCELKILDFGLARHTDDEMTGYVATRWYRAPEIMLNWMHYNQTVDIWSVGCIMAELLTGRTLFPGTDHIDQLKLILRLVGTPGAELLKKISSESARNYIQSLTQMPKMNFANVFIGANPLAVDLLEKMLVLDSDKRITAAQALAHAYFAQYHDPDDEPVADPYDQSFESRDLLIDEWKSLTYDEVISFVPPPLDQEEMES
In short: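 Activated p38 was preincubated with inhibitor for 15 min at room temperature in 100 mM HEPES pH 7.6, 10 mM MgCl2, 25 mM β-glycerophosphate, 10% glycerol, 5% DMSO final. Reaction used 200 μM EGF receptor peptide and 100 μM ATP for 30 min at 30° C. TFA-quenched phosphopeptide was quantified by reverse-phase HPLC.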

[5] = system: IL-1 production in whole blood; assay: Inhibition of IL-1 production in LPS-stimulated whole blood ("WB"); assay type: cell-based, human
Experimental: as §1, §2, §3, §4

SMILES | IC50 ([1]; Homo sapiens) | IC50 ([2]; Homo sapiens, PBMC) | IC50 ([3]; Homo sapiens, PBMC) | IC50 ([4]; Homo sapiens) | IC50 (activated p38) | IC50 ([5]; Homo sapiens) | IC50 [1] | IC50 [2] | IC50 [3] | IC50 [4] | IC50 [5]
O=C1NCN2N=C(Sc3ccccc3CO)C=CC2=C1c1c(Cl)cccc1Cl [Compound 108] | ≤ 250 nM | ≤ 100 nM | 100 to 500 nM | ≤ 250 nM | ≤ 100 nM | 250 to 500 nM |  |  |  |  | 
O=C1NCN2N=C(Sc3ccccc3Br)C=CC2=C1c1c(Cl)cccc1Cl [Compound 109] | ≥ 500 nM | ≤ 100 nM | ≤ 100 nM | 250 to 500 nM | ≤ 100 nM | ≥ 500 nM |  |  |  |  | 
CC(C)(C)OC(=O)Nc1ccccc1SC1=NN2CNC(=O)C(c3c(Cl)cccc3Cl)=C2C=C1 [Compound 112] | ≥ 500 nM | ≥ 500 nM | 100 to 500 nM | ≥ 500 nM | 100 to 1000 nM | ≥ 500 nM |  |  |  |  | 
Cc1ccc(SC2=NN3CNC(=O)C(c4c(Cl)cccc4Cl)=C3C=C2)c(C)c1 [Compound 113] | ≥ 500 nM | 100 to 500 nM | ≤ 100 nM | ≥ 500 nM | ≤ 100 nM | ≥ 500 nM |  |  |  |  | 
O=C1NCN2N=C(Sc3ccccc3O)C=CC2=C1c1c(Cl)cccc1Cl [Compound 114] | 250 to 500 nM | ≤ 100 nM | ≤ 100 nM | ≤ 250 nM | ≤ 100 nM | 250 to 500 nM |  |  |  |  | 
Nc1ccccc1SC1=NN2CNC(=O)C(c3c(Cl)cccc3Cl)=C2C=C1 [Compound 115] | ≥ 500 nM | ≤ 100 nM | ≤ 100 nM | ≥ 500 nM | ≤ 100 nM | ≥ 500 nM |  |  |  |  | 
N#Cc1ccccc1SC1=NN2CNC(=O)C(c3c(Cl)cccc3Cl)=C2C=C1 [Compound 116] | ≥ 500 nM | 100 to 500 nM | ≤ 100 nM | ≥ 500 nM | ≤ 100 nM | ≥ 500 nM |  |  |  |  | 
Nc1cc(F)ccc1SC1=NN2CNC(=O)C(c3c(Cl)cccc3Cl)=C2C=C1 [Compound 117] | 250 to 500 nM | ≤ 100 nM | ≤ 100 nM | ≤ 250 nM | ≤ 100 nM | 250 to 500 nM |  |  |  |  | 
NCc1ccccc1SC1=NN2CNC(=O)C(c3c(Cl)cccc3Cl)=C2C=C1 [Compound 118] | ≥ 500 nM | 100 to 500 nM | 100 to 500 nM | ≥ 500 nM | 100 to 1000 nM | ≥ 500 nM |  |  |  |  | 
COc1ccc(C2=C3C=CC(Sc4ccc(F)cc4)=NN3CNC2=O)c(Cl)c1OC [Compound 121] | ≥ 500 nM | 100 to 500 nM | ≤ 100 nM | ≥ 500 nM | ≤ 100 nM | ≥ 500 nM |  |  |  |  | 
Nc1ccc(F)cc1SC1=NN2CNC(=O)C(c3c(Cl)cccc3Cl)=C2C=C1 [Compound 122] | ≥ 500 nM | ≥ 500 nM | 100 to 500 nM | ≥ 500 nM | 100 to 1000 nM | ≥ 500 nM |  |  |  |  | 
O=C1NCN2N=C(Sc3ccccc3CNc3ncc[nH]3)C=CC2=C1c1c(Cl)cccc1Cl [Compound 123] | ≥ 500 nM | 100 to 500 nM | 100 to 500 nM | ≥ 500 nM | 100 to 1000 nM | ≥ 500 nM |  |  |  |  | 
Nc1ccc(Cl)c(C2=C3C=CC(Sc4ccc(F)cc4)=NN3CNC2=O)c1Cl [Compound 125] | ≥ 500 nM | ≤ 100 nM | ≤ 100 nM | ≥ 500 nM | ≤ 100 nM | ≥ 500 nM |  |  |  |  | 
O=C1NCN2N=C(Sc3ccc(F)cc3Cl)C=CC2=C1c1c(Cl)cccc1Cl [Compound 127] | 250 to 500 nM | ≤ 100 nM | ≤ 100 nM | ≤ 250 nM | ≤ 100 nM | 250 to 500 nM |  |  |  |  | 
O=C1NCN2N=C(Sc3ccc(F)cc3)C=CC2=C1c1cc2c(cc1Cl)OCO2 [Compound 129] | ≥ 500 nM | ≤ 100 nM | ≤ 100 nM | 250 to 500 nM | ≤ 100 nM | 250 to 500 nM |  |  |  |  | 
COc1cc(Cl)c(C2=C3C=CC(Sc4ccc(F)cc4)=NN3CNC2=O)cc1O [Compound 135] | ≥ 500 nM | ≥ 500 nM | 100 to 500 nM | ≥ 500 nM | ≤ 100 nM | ≥ 500 nM |  |  |  |  | 
O=C1NCN2N=C(Sc3ccc(F)cc3Cl)C=CC2=C1c1cc2c(cc1Cl)OCO2 [Compound 136] | ≥ 500 nM | ≤ 100 nM | ≤ 100 nM | 250 to 500 nM | ≤ 100 nM | ≥ 500 nM |  |  |  |  | 
Nc1ccc(C2=C3C=CC(Sc4ccc(F)cc4)=NN3CNC2=O)c(Cl)c1 [Compound 137] | ≥ 500 nM | 100 to 500 nM | ≤ 100 nM | 250 to 500 nM | ≤ 100 nM | ≥ 500 nM |  |  |  |  | 
O=C1C(c2c(Cl)cccc2Cl)=C2C=CC(Sc3ccc(F)cc3)=NN2CN1CO [Compound 138] | ≥ 500 nM | 100 to 500 nM | ≤ 100 nM | ≤ 250 nM | 100 to 1000 nM | ≥ 500 nM |  |  |  |  | 
COc1ccc(C2=C3C=CC(Sc4ccc(F)cc4)=NN3CNC2=O)c(Cl)c1 [Compound 139] | ≥ 500 nM | ≥ 500 nM | ≤ 100 nM | ≥ 500 nM | ≤ 100 nM | ≥ 500 nM |  |  |  |  | 
CN(C)/C=N\c1ccc(C2=C3C=CC(Sc4ccc(F)cc4Cl)=NN3CNC2=O)c(Cl)c1 [Compound 140] | ≥ 500 nM | ≤ 100 nM | ≤ 100 nM | 250 to 500 nM | ≤ 100 nM | 250 to 500 nM |  |  |  |  | 
O=C(CCl)Nc1ccc(C2=C3C=CC(Sc4ccc(F)cc4)=NN3CNC2=O)c(Cl)c1 [Compound 141] | ≥ 500 nM | ≤ 100 nM | ≤ 100 nM | ≥ 500 nM | ≤ 100 nM | ≥ 500 nM |  |  |  |  | 
CC(=O)Nc1ccc(C2=C3C=CC(Sc4ccc(F)cc4)=NN3CNC2=O)c(Cl)c1 [Compound 143] | ≥ 500 nM | 100 to 500 nM | ≤ 100 nM | ≥ 500 nM | ≤ 100 nM | ≥ 500 nM |  |  |  |  | 
O=C(CN1CCOCC1)Nc1ccc(C2=C3C=CC(Sc4ccc(F)cc4)=NN3CNC2=O)c(Cl)c1 [Compound 144] | ≥ 500 nM | 100 to 500 nM | ≤ 100 nM | 250 to 500 nM | ≤ 100 nM | ≥ 500 nM |  |  |  |  | 
O=C1NCN2N=C(Sc3ccc(F)cc3Cl)C=CC2=C1c1cc2c(cc1Cl)OCO2 [Compound 145] |  |  |  |  | ≤ 100 nM |  | ≤ 250 nM | ≤ 100 nM | ≤ 100 nM | ≤ 250 nM | ≤ 250 nM
NC(=O)C(c1ccc(Sc2ccccc2)cn1)c1c(Cl)cccc1Cl (stereo not drawn) [Compound 201] | ≤ 250 nM | ≥ 500 nM | ≥ 500 nM | ≥ 500 nM | 100 to 1000 nM | ≥ 500 nM |  |  |  |  | 
NC(=O)C(c1cccc(-c2ccccc2CO)n1)c1c(Cl)cccc1Cl (stereo not drawn) [Compound 302] | ≥ 500 nM | 100 to 500 nM | ≤ 100 nM | ≥ 500 nM | ≤ 100 nM | ≥ 500 nM |  |  |  |  | 
CNCc1ccccc1-c1cccc(C(C(N)=O)c2c(Cl)cccc2Cl)n1 (stereo not drawn) [Compound 303] | ≥ 500 nM | ≥ 500 nM | ≥ 500 nM | ≥ 500 nM | ≥ 1000 nM | ≥ 500 nM |  |  |  |  | 
NC(=O)C(c1cccc(-c2ccccc2CN2CCNCC2)n1)c1c(Cl)cccc1Cl (stereo not drawn) [Compound 304] | ≥ 500 nM | ≥ 500 nM | ≥ 500 nM | ≥ 500 nM | ≥ 1000 nM | ≥ 500 nM |  |  |  |  | 
Cc1ccccc1-c1cccc(C(C(N)=O)c2c(Cl)cccc2Cl)n1 (stereo not drawn) [Compound 305] | ≥ 500 nM | ≥ 500 nM | ≤ 100 nM | ≥ 500 nM | ≤ 100 nM | ≥ 500 nM |  |  |  |  | 
